US10189796B2, “[4-(1,3,3-trimethyl-2-oxo-3,4-dihydro-1H-quinoxalin-7-yl)phenoxy]ethyloxy compound or salt thereof” (SANTEN PHARMACEUTICAL CO., LTD., priority 2015, dated 2019)

Tested on: exorbital lacrimal gland-removed rat dry eye model
Experiment: Dry eye syndrome (dry eye) model evaluation test
Assay type: in vivo
Details: eye drop 5 μL four times a day
Method: In order to evaluate the treatment effect of the present compounds on corneal disorder accompanied by dry eye syndrome (dry eye), a treatment effect on corneal disorder in an exorbital lacrimal gland-removed rat dry eye model was investigated. This model was prepared in accordance with the method of Fujihara, et al. (Invest. Ophthalmol. Vis. Sci., 42(1): 96-100 (2001)). Incidentally, this effect was scored according to the method of Murakami et al. (New Ophthalmologist 21(1): 87-90 (2004)), the extent of corneal disorder was scored and the improvement ratio was calculated from the corneal disorder score of the base agent administered group (control group), the corneal disorder score of the test compound administered group and the corneal disorder score of the normal rat.
A base agent containing a general additive(s) was added to the test compound to prepare test compound suspensions with 0.03% (W/V) and 0.1% (W/V). In addition, a base agent was added to the commercially available drug A to prepare a diluted solution with 0.05% (V/V).
• 1) By using male SD rats, somnopentyl was administered to the rats to apply them general anesthesia, exorbital lacrimal glands were removed, and corneal disorder was induced over 8 weeks thereafter. • 2) The test compound suspension was eye-dropped (instillation dose: 5 μL/time) to both eyes four times a day for 14 days. Incidentally, the base agent was similarly eye-dropped to the administered group (control group), and the commercially available drug A and its diluted solution were similarly eye-dropped. • 3) Fourteen days after the start of eye dropping, the cornea was stained with fluorescein. For each of the upper part, the middle part and the lower part of the cornea, scores of the degree of staining with fluorescein were determined according to the following criteria, and an average value of the total of the scores was calculated. Incidentally, 0.5 was set as an intermediate value between each score of 0, 1, 2 and 3. <<Judgement Standard>>
1: Dyeing is sparse, and the dyed portions of each dot are separated
2: Dyeing is a middle degree and part of the dotted dyed portions is adjacent
3: Dyeing is dense, and the dyed portions of each point are almost adjacent
(Calculation Formula) Corneal disorder improvement ratio (%) of the test compound administered group=(Ao−Ax)/(Ao−An)×100 • Ao: Average value of corneal disorder score of the base agent administered group (control group) • Ax: Average value of corneal disorder score of the test compound administered group • An: Average value of corneal disorder score of normal rat (Test Result and Consideration)

COc1cc(OC[C@H](C)OC(=O)CN(C)C)ccc1-c1ccc2c(c1COc1cc(F)ccc1C)N(C)C(=O)C(C)(C)N2 [Compound 11-1, (S)-7-[4-[2-(N,N-dimethylaminoacetoxy)propyl]oxy-2-methoxyphenyl]-8-(5-fluoro-2-methylphenoxymethyl)-1,3,3-trimethyl-3,4-dihydro-1H-quinoxalin-2-one]
Corneal disorder improvement ratio (%) After 14 days eye dropping (0.03%): 33%
Corneal disorder improvement ratio (%) After 14 days eye dropping (0.1%): 64%
